# Measured values as given in US8506950B2, “Degradable microcapsules” (ETH Zurich, priority 2008, dated 2013).
# System: PhCMV*-1 and PETR driven SecCell expression
# Assay: Transient expression of SecCell under antibiotic-responsive promoters in mammalian cells
# Assay type: cell-based, human, hamster
# Conditions: HEK293-T, HeLa, HT-1080, CHO-K1, BHK-21, transient transfection
# Text: (B) Transient expression of cellulase in HEK293-T, HeLa, HT-1080, BHK-21 and CHO-K1 cells. Cellulase was either driven by a constitutive (PhCMV) or antibiotic-responsive promoters (PhCMV*-1 and PETR).
# The Bacillus subtilis endo (1-4)-beta-glucanase was PCR-amplified from genomic DNA and fused to a strong mammalian secretion signal sequence derived from the murine Igk-chain V-12-C region. The secreted cellulase (SecCell) was cloned downstream of a constitutive promoter (PhCMV) as well as two different inducible promoters which enabled doxycycline-(PhCMV*-1) and erythromycin-(PETR) adjustable transgene expression (FIG. 1A).
# Cellulase was quantified using EnzCheck® fluorescent substrate (Molecular Probes, Eugene, Oreg., USA) according to the manufacturer's protocol: 20 μl of cell culture supernatant was centrifuged at 16,000×g for one minute to remove cell debris and 15 μl of appropriate dilutions in PBS (Invitrogen, cat. no. 21600-069) were transferred to a 384-well plate containing 15 μl sodium acetate buffer (200 mM sodium acetate, pH 5.5) per well supplemented with 3 μl substrate solution. Plates were incubated at 37° C. for 30 minutes and fluorescence intensity was measured subsequently at 340 nm (excitation wavelength) and 450 nm (emission wavelength) in a Genios Pro multiwell plate reader (Tecan A G, Maennedorf, Switzerland). […]
compound,measurement,value
"CC[C@H]1OC(=O)[C@H](C)[C@@H](O[C@H]2C[C@@](C)(OC)[C@@H](O)[C@H](C)O2)[C@H](C)[C@@H](O[C@@H]2O[C@H](C)C[C@H](N(C)C)[C@H]2O)[C@](C)(O)C[C@@H](C)C(=O)[C@H](C)[C@@H](O)[C@]1(C)O [EM, erythromycin]",SecCell production (cellulase activity in the culture supernatants),repressed
